Where two headings read alike, the source gives them in different places.
What was measured:
[1] = Tissue concentrations of Formula I and its metabolites in Göttingen pigs after a single oral or intravenous dose (LC-MS/MS); type: in vivo; details: for concentration at 2 h / concentration at 3 h: both sexes, Göttingen, pig (minipig), in vivo; for concentration at 2 h: 25 mg/kg; for concentration at 3 h: 125 mg/kg
Description: Tissue samples were collected at 3, 12, and 24 hours post-dose (hpd) for the oral dose and 2 and 12 hpd for the intravenous dose, snap-frozen in liquid nitrogen, and stored at −60 to −90° C. until shipment on dry ice for analysis by LC-MS/MS.
Animals were weighed the day prior to dosing to determine the dosing volume.
The compound of Formula I was dissolved in a PEG 400/DI water (60%/40% v/v) vehicle for oral dosing. For IV dosing the compound of Formula I was dissolved in a PEG 400/Cremophor RH 40/Saline (40%/10%/50% v/v) vehicle and passed through a sterile filter. […] Animals were euthanized by euthanasia solution administration under sedation, if necessary (e.g., acepromazine and or/Telazol®), followed by a Testing Facility SOP approved method to ensure death (e.g., exsanguination). Tissues were collected from two animals per sex per timepoint. Tissue samples, including the brain, heart, kidney, liver, lung, spleen, pancreas, bone marrow, duodenum, jejunum, and colon, were collected in duplicate (approximately 50±20 mg each) and placed into two separate reinforced homogenization tubes per organ (one tissue sample per tube). The exact weight (in milligrams) of each sample was recorded. Tissues samples were flash frozen in liquid nitrogen and stored at −60 to −90° C. until shipment on dry ice for analysis by LC-MS/MS.
Mobile phase A consisted of 50 mM ammonium bicarbonate buffer in HPLC grade water pH 9.8 and mobile phase B consisted of pure acetonitrile. […] Mass spectrometry analysis was performed on a QTrap 7500 Mass Spectrometer (Sciex, Framingham, MA, USA) using negative mode electrospray ionization (ESI) in multiple reaction monitoring (MRM) mode. Data analysis was performed using SCIEX OS Software (Sciex, Framingham, MA, USA).
Tissue samples were collected at 3, 12, and 24 hours post-dose for the oral dose and 2 and 12 hour post-dose for the intravenous dose.

[2] = Stability in minipig plasma; type: in vitro ADME
[3] = liver, single oral dose of Formula I 125 mg/kg, 12 hpd
[4] = liver, single oral dose of Formula I 125 mg/kg, 24 hpd

## CC(C)OC(=O)[C@H](C)N[P@](=O)(OC[C@H]1O[C@@H](n2ccc(=O)[nH]c2=S)C(C)(O)C1O)Oc1ccccc1 (some centres unmarked) [Formula I]
[1]; all organs, 2-3 hours after IV or PO dosing
  Quantity detectable in organs: ~0.1 µM
[1]; kidney, single intravenous bolus of Formula I 25 mg/kg, 2 hpd, read-out: Tissue concentration, kidney
  concentration at 2 h: 85 ± 93.1 ng/g
[1]; liver, single intravenous bolus of Formula I 25 mg/kg, 2 hpd, read-out: Tissue concentration, liver
  concentration at 2 h: 7.03 ± 8.24 ng/g
[1]; lung, single intravenous bolus of Formula I 25 mg/kg, 2 hpd, read-out: Tissue concentration, lung
  concentration at 2 h: 51.8 ± 29.1 ng/g
[1]; spleen, single intravenous bolus of Formula I 25 mg/kg, 2 hpd, read-out: Tissue concentration, spleen
  concentration at 2 h: 63.9 ± 29.8 ng/g
[1]; brain, single oral dose of Formula I 125 mg/kg, 3 hpd, read-out: Tissue concentration, brain
  concentration at 3 h: 31.5 ± 63 ng/g
[1]; heart, single oral dose of Formula I 125 mg/kg, 3 hpd, read-out: Tissue concentration, heart
  concentration at 3 h: 117 ± 105 ng/g
[1]; liver, single oral dose of Formula I 125 mg/kg, 3 hpd, read-out: Tissue concentration in Göttingen pig liver (Table 7)
  concentration at 3 h: 496 ± 663 nM
[1]; liver, single oral dose of Formula I 125 mg/kg, 3 hpd, read-out: Tissue concentration, liver
  concentration at 3 h: 270 ± 361 ng/g
[1]; lung, single oral dose of Formula I 125 mg/kg, 3 hpd, read-out: Tissue concentration, lung
  concentration at 3 h: 38.6 ± 46.5 ng/g
[1]; spleen, single oral dose of Formula I 125 mg/kg, 3 hpd, read-out: Tissue concentration, spleen
  concentration at 3 h: 88.4 ± 60.3 ng/g
[1]; brain, single intravenous bolus of Formula I 25 mg/kg, 2 hpd
  Tissue concentration, brain: BQL
[1]; brain, single intravenous bolus of Formula I 25 mg/kg, 12 hpd
  Tissue concentration, brain: BQL
[1]; brain, single oral dose of Formula I 125 mg/kg, 3 hpd
  Tissue concentration, brain: 31.5 ± 63.0 ng/g
[1]; brain, single oral dose of Formula I 125 mg/kg, 12 hpd
  Tissue concentration, brain: BQL
[1]; brain, single oral dose of Formula I 125 mg/kg, 24 hpd
  Tissue concentration, brain: BQL
[1]; heart, single intravenous bolus of Formula I 25 mg/kg, 2 hpd
  Tissue concentration, heart: 112 ± 69.0 ng/g
[1]; heart, single intravenous bolus of Formula I 25 mg/kg, 12 hpd
  Tissue concentration, heart: 2.95 ± 5.90 ng/g
[1]; heart, single oral dose of Formula I 125 mg/kg, 12 hpd
  Tissue concentration, heart: BQL
[1]; heart, single oral dose of Formula I 125 mg/kg, 24 hpd
  Tissue concentration, heart: BQL
[1]; kidney, single intravenous bolus of Formula I 25 mg/kg, 12 hpd
  Tissue concentration, kidney: BQL
[1]; kidney, single oral dose of Formula I 125 mg/kg, 3 hpd
  Tissue concentration, kidney: BQL
[1]; kidney, single oral dose of Formula I 125 mg/kg, 12 hpd
  Tissue concentration, kidney: BQL
[1]; kidney, single oral dose of Formula I 125 mg/kg, 24 hpd
  Tissue concentration, kidney: BQL
[1]; liver, single intravenous bolus of Formula I 25 mg/kg, 2 hpd
  Tissue concentration, liver: 7.03 ± 8.24 ng/g
[1]; liver, single intravenous bolus of Formula I 25 mg/kg, 12 hpd
  Tissue concentration, liver: BQL
[1]; liver, single oral dose of Formula I 125 mg/kg, 3 hpd
  Tissue concentration, liver: 270 ± 361 ng/g
[1]; [3]
  Tissue concentration in Göttingen pig liver (Table 7): BQL
  Tissue concentration, liver: BQL
[1]; [4]
  Tissue concentration in Göttingen pig liver (Table 7): BQL
  Tissue concentration, liver: BQL
[1]; lung, single intravenous bolus of Formula I 25 mg/kg, 12 hpd
  Tissue concentration, lung: BQL
[1]; lung, single oral dose of Formula I 125 mg/kg, 12 hpd
  Tissue concentration, lung: BQL
[1]; lung, single oral dose of Formula I 125 mg/kg, 24 hpd
  Tissue concentration, lung: BQL
[1]; spleen, single intravenous bolus of Formula I 25 mg/kg, 12 hpd
  Tissue concentration, spleen: BQL
[1]; spleen, single oral dose of Formula I 125 mg/kg, 12 hpd
  Tissue concentration, spleen: BQL
[1]; spleen, single oral dose of Formula I 125 mg/kg, 24 hpd
  Tissue concentration, spleen: BQL
[2]
  Stability in minipig plasma: good stability

Reference: patent publication US20240390408A1, “METHOD OF TREATING HEPATITIS C VIRUS IN PATIENTS” (Altesa BioSciences, Inc., priority 2023, published 2024)
